Patent US20180312493A1, “Antibiotic Compounds, Pharmaceutical Formulations Thereof And Methods And Uses Therefor” (Simon Fraser University, priority 2015, published 2018)
≈ marks a conversion by molar mass, not a printed value. Where two headings read alike, the source gives them in different places.

How the values were obtained:
S. aureus (ATCC29213) = experiment: In vitro susceptibility, broth microdilution (MIC); format: cell-based; conditions: Staphylococcus aureus
Summary of the method: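 CLSI 2-fold serial broth microdilution; K. pneumoniae C238 grown in L-broth, S. aureus ATCC 29213 in Mueller Hinton broth, plates incubated 18–24 h at 37 °C. MIC taken as lowest concentration giving complete growth inhibition by OD600 versus compound-free wells, background-subtracted.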

MRSA Pyk = target: T1, MRSA Pyk (Staphylococcus aureus, UniProt Q6GG09); experiment: MRSA pyruvate kinase (PK) activity, continuous LDH-coupled assay; format: biochemical, methicillin resistant S. aureus (MRSA252)
T1 construct: made in house; host or cells: E. coli BL-21 (DE3)
T1 sequence (Q6GG09 whole entry): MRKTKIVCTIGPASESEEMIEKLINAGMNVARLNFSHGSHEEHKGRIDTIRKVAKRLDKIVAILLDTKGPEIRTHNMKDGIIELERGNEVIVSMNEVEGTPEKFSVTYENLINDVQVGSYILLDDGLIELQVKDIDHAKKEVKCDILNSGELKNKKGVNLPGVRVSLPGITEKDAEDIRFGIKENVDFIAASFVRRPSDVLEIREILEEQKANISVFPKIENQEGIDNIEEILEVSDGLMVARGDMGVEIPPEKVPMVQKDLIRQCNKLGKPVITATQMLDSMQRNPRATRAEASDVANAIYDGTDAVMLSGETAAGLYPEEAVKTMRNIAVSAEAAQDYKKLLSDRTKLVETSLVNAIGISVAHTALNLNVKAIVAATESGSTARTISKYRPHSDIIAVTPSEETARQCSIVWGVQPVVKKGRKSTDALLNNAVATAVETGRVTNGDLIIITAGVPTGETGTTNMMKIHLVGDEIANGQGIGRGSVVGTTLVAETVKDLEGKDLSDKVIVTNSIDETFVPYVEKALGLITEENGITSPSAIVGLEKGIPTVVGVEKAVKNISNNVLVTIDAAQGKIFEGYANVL
Summary of the method: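 Activity monitored continuously as absorbance change at 340 nm from NADH oxidation via coupled lactate dehydrogenase, reactions started with 15 nM recombinant His-tagged PK (MRSA or human isoform) and run at 30° C for up to 5 min. Ki derived by varying inhibitor (0-400 nM) and PEP (2-20 mM) at 2 mM ADP; IC50 by four-parameter fitting.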

[1] = S. aureus ATCC29213, 18-24 h, 37 C, read-out: Antimicrobial activity (MIC) S. aureus ATCC29213

N[C@@H](CCCCNC(=O)c1c(/C=C/c2ccc(Cl)cc2)[nH]c2cc(Br)ccc12)C(=O)O [Compound 54, (S,E)-2-Amino-6-(6-bromo-2-(4-chlorostyryl)-1H-indole-3-carboxamido)hexanoic Acid]
MIC (S. aureus (ATCC29213); [1]): > 64 µg/mL
IC50 (MRSA Pyk): < 100 nM

O=C(NCCN1CCN(C(=O)CCC(=O)N2CCN(CCNC(=O)c3c(/C=C/c4ccc(Cl)cc4)[nH]c4cc(Br)ccc34)CC2)CC1)c1c(/C=C/c2ccc(Cl)cc2)[nH]c2cc(Br)ccc12 [Compound 55, (E)-N,N′-((4,4′-succinylbis(piperazine-4,1-diyl))bis(ethane-2,1-diyl))bis(6-bromo-2-((E)-4-chlorostyryl)-1H-indole-3-carboxamide)]
MIC (S. aureus (ATCC29213); [1]): > 64 µg/mL
IC50 (MRSA Pyk): > 1000 nM

O=C(NCCN1CCN(C(=O)CO)CC1)c1c(/C=C/c2ccc(Cl)cc2)[nH]c2cc(Br)ccc12 [Compound 58, (E)-6-Bromo-2-(4-chlorostyryl)-N-(2-(4-(2-hydroxyacetyl)piperazin-1-yl)ethyl)-1H-indole-3-carboxamide]
MIC (S. aureus (ATCC29213); [1]): > 64 µg/mL
IC50 (MRSA Pyk): < 100 nM

O=C(O)CCC(=O)N1CCN(CCNC(=O)c2c(/C=C/c3ccc(Cl)cc3)[nH]c3cc(Br)ccc23)CC1 [Compound 59, (E)-4-(4-(2-(6-Bromo-2-(4-chlorostyryl)-1H-indole-3-carboxamido)ethyl)piperazin-1-yl)-4-oxobutanoic Acid]
MIC (S. aureus (ATCC29213); [1]): > 64 µg/mL
IC50 (MRSA Pyk): 100 to 1000 nM

O=C(OCCN1CCOCC1)c1c(/C=C/c2ccc(Cl)cc2)[nH]c2cc(Br)ccc12 [Compound 62, 2-Morpholinoethyl (E)-6-bromo-2-(4-chlorostyryl)-1H-indole-3-carboxylate]
MIC (S. aureus (ATCC29213); [1]): > 64 µg/mL
IC50 (MRSA Pyk): 100 to 1000 nM

O=C(NCc1ccccc1)c1cc(Br)cc2[nH]c(/C=C/c3ccc(Cl)cc3)cc12 [Compound 63, (E)-N-Benzyl-6-bromo-2-(4-chlorostyryl)-1H-indole-4-carboxamide]
MIC (S. aureus (ATCC29213); [1]): > 64 µg/mL
IC50 (MRSA Pyk): 100 to 1000 nM

CN(C)C(=O)c1cc(Br)cc2[nH]c(/C=C/c3ccc(Cl)cc3)cc12 [Compound 64, (E)-6-Bromo-2-(4-chlorostyryl)-N,N-dimethyl-1H-indole-4-carboxamide]
MIC (S. aureus (ATCC29213); [1]): > 64 µg/mL
IC50 (MRSA Pyk): < 100 nM

FC(F)(F)c1c(/C=C/c2ccc(Cl)cc2)[nH]c2cc(Br)ccc12 [Compound 65, (E)-6-Bromo-2-(4-chlorostyryl)-3-(trifluoromethyl)-1H-indole]
MIC (S. aureus (ATCC29213); [1]): 1 µg/mL (≈ 2.5 µM)
IC50 (MRSA Pyk): < 100 nM

FC(F)(F)c1c(CCc2ccc(Cl)cc2)[nH]c2cc(Br)ccc12 [Compound 66, 6-Bromo-2-(4-chlorophenethyl)-3-(trifluoromethyl)-1H-indole]
MIC (S. aureus (ATCC29213); [1]): 2 µg/mL (≈ 4.97 µM)
IC50 (MRSA Pyk): 100 to 1000 nM

N#Cc1c(/C=C/c2ccc(Cl)cc2)[nH]c2cc(Br)ccc12 [Compound 67, (E)-6-Bromo-2-(4-chlorostyryl)-1H-indole-3-carbonitrile]
MIC (S. aureus (ATCC29213); [1]): > 64 µg/mL
IC50 (MRSA Pyk): > 1000 nM

NC(=NO)c1c(/C=C/c2ccc(Cl)cc2)[nH]c2cc(Br)ccc12 [Compound 68, 6-Bromo-2-((E)-4-chlorostyryl)-N′-hydroxy-1H-indole-3-carboximidamide]
MIC (S. aureus (ATCC29213); [1]): 8 µg/mL (≈ 20.5 µM)
IC50 (MRSA Pyk): < 100 nM

Clc1ccc(/C=C/c2[nH]c3cc(Br)ccc3c2-c2nn[nH]n2)cc1 [Compound 69, (E)-6-Bromo-2-(4-chlorostyryl)-3-(2H-tetrazol-5-yl)-1H-indole]
MIC (S. aureus (ATCC29213); [1]): 16 µg/mL (≈ 39.9 µM)
IC50 (MRSA Pyk): < 100 nM

NS(=O)(=O)c1c(CCc2ccc(Cl)cc2)[nH]c2cc(Br)ccc12 [Compound 70, 6-Bromo-2-(4-chlorophenethyl)-1H-indole-3-sulfonamide]
MIC (S. aureus (ATCC29213); [1]): > 64 µg/mL
IC50 (MRSA Pyk): > 1000 nM

O=C(c1c(-c2cc3ccccc3s2)[nH]c2cc(Br)ccc12)N1CCOCC1 [Compound 75]
MIC (S. aureus (ATCC29213); [1]): > 64 µg/mL
IC50 (MRSA Pyk): > 1000 nM

O=C(c1c(-c2cc3ccccc3[nH]2)[nH]c2cc(Br)ccc12)N1CCOCC1 [Compound 76, (6-Bromo-1H,1′H-[2,2′-biindol]-3-yl)(morpholino)methanone]
MIC (S. aureus (ATCC29213); [1]): > 64 µg/mL
IC50 (MRSA Pyk): > 1000 nM

CC(C)(C)OC(=O)N1CCN(CCNC(=O)c2c(C(=O)Nc3ccc(Cl)cc3)[nH]c3cc(Br)ccc23)CC1 [Compound 78, tert-Butyl 4-(2-(6-bromo-2-((4-chlorophenyl)carbamoyl)-1H-indole-3-carboxamido)ethyl)piperazine-1-carboxylate]
MIC (S. aureus (ATCC29213); [1]): > 64 µg/mL
IC50 (MRSA Pyk): < 100 nM

CN1CCN(CCNC(=O)c2c(C(=O)Nc3ccc(Cl)cc3)[nH]c3cc(Br)ccc23)CC1 [Compound 79, 6-Bromo-N2-(4-chlorophenyl)-N3-(2-(4-methylpiperazin-1-yl)ethyl)-1 H-indole-2,3-dicarboxamide]
MIC (S. aureus (ATCC29213); [1]): > 64 µg/mL
IC50 (MRSA Pyk): < 100 nM

O=C(Nc1ccc(Cl)cc1)c1[nH]c2cc(Br)ccc2c1C(=O)NCCN1CCNCC1 [Compound 80, 6-Bromo-N2-(4-chlorophenyl)-N3-(2-(piperazin-1-yl)ethyl)-1H-indole-2,3-dicarboxamide]
MIC (S. aureus (ATCC29213); [1]): > 64 µg/mL
IC50 (MRSA Pyk): < 100 nM

CN(C)CCNC(=O)c1c(C(=O)Nc2ccc(Cl)cc2)[nH]c2cc(Br)ccc12 [Compound 81, 6-Bromo-N2-(4-chlorophenyl)-N3-(2-(dimethylamino)ethyl)-1H-indole-2,3-dicarboxamide]
MIC (S. aureus (ATCC29213); [1]): > 64 µg/mL
IC50 (MRSA Pyk): < 100 nM

CN(C)CCOC(=O)c1c(C(=O)Nc2ccc(Cl)cc2)[nH]c2cc(Br)ccc12 [Compound 82, 2-(Dimethylamino)ethyl 6-bromo-2-((4-chlorophenyl)carbamoyl)-1 H-indole-3-carboxylate]
MIC (S. aureus (ATCC29213); [1]): > 64 µg/mL
IC50 (MRSA Pyk): < 100 nM

O=C(O)C(=O)c1c(/C=C/c2ccc(Cl)cc2)[nH]c2cc(Br)ccc12 [Compound 85, (E)-2-(6-bromo-2-(4-chlorostyryl)-1H-indol-3-yl)-2-oxoacetic Acid]
MIC (S. aureus (ATCC29213); [1]): > 64 µg/mL
IC50 (MRSA Pyk): 100 to 1000 nM

NC(=O)[C@@H]1CCCN1CCCCNC(=O)c1c(-c2cc3cc(Cl)ccc3[nH]2)[nH]c2cc(Br)ccc12 [Compound 116, (S)-6-Bromo-N-(4-(2-carbamoylpyrrolidin-1-yl)butyl)-5′-chloro-1H,1′H-[2,2′-biindole]-3-carboxamide]
MIC (S. aureus (ATCC29213); [1]): > 64 µg/mL
IC50 (MRSA Pyk): < 100 nM

CC(C)(C)OC(=O)COc1cc2[nH]c(-c3cc4ccc(Br)cc4[nH]3)cc2cc1Cl [Compound 186, tert-Butyl 2-((6′-bromo-5-chloro-1H,1′H-[2,2′-biindol]-6-yl)oxy)acetate]
MIC (S. aureus (ATCC29213); [1]): > 64 µg/mL
IC50 (MRSA Pyk): < 100 nM

O=C(O)COc1cc2[nH]c(-c3cc4ccc(Br)cc4[nH]3)cc2cc1Cl [Compound 187, 2-((6′-Bromo-5-chloro-1H,1′H-[2,2′-biindol]-6-yl)oxy)acetic Acid]
MIC (S. aureus (ATCC29213); [1]): 64 µg/mL (≈ 153 µM)
IC50 (MRSA Pyk): < 100 nM

CS(=O)(=O)OCCOc1cc2[nH]c(-c3cc4ccc(Br)cc4[nH]3)cc2cc1Cl [Compound 198, 2-((6′-Bromo-5-chloro-1H,1′H-[2,2′-biindol]-6-yl)oxy)ethyl Methanesulfonate]
MIC (S. aureus (ATCC29213); ATCC29213, read-out: Antimicrobial activity (MIC) S. aureus ATCC29213): > 64 µg/mL
IC50 (MRSA Pyk): < 100 nM

O=C(NCCN1CCN[C@H](C(=O)O)C1)c1c(-c2cc3cc(Cl)ccc3[nH]2)[nH]c2cc(Br)ccc12 [Compound 229, (S)-4-(2-(6-bromo-5′-chloro-1H,1′H-[2,2′-biindole]-3-carboxamido)ethyl)piperazine-2-carboxylic Acid]
MIC (S. aureus (ATCC29213); [1]): > 64 µg/mL
IC50 (MRSA Pyk): < 100 nM
